Assay [1] concerns Hek293 cell lines expressing the recombinant vector. Kind of assay: Forskolin activation of transfected Hek293 cells (cAMP). The settings on record: Forskolin 10 mM, 1 mM and 0.1 mM. In kind it is cell-based. How it is done: (§1) Ligand binding studies were performed two days after transfections, in three independent experiments. Transfected cells were incubated in duplicate with different concentrations (10^-6 to 10^-11M) of the human VIP, PACAP38 and secretin (SCT) peptides and ovine PACAP27 peptide for 30 minutes (Sigma-Aldrich, Spain). Homologous sea bream peptides are unavailable but their predicted amino acid sequences are 82%, 100%and 92% identical to human VIP, PACAP27 and PACAP38 respectively and important amino acids at N-terminus potential involved in receptor binding are totally conserved (unpublished data). […]
(§2) The quantification of cAMP produced was determined by radioimmunoassay using the TRK432 kit (GE Healthcare, UK) following the manufacturer's instructions. […] The concentration of cAMP produced (pmol/well) was determined in duplicate for each sample and calculations performed based on a linear regression curve constructed using standard concentrations of labelled (^3H) cAMP. […] Data was analyzed by comparing the potency profile of each sbPAC1 receptor in the presence of different concentrations of test peptides and by comparing the potency profile of both receptors in the presence of identical peptide concentrations. […]

In assay [2] the test system is Cos7 cell lines expressing the recombinant vector. Kind of assay: Forskolin activation of transfected Cos7 cells (cAMP). In kind it is cell-based. The settings on record: Forskolin 10 mM, 1 mM and 0.1 mM. As to the method: as §1, §2
A further assay has as its system sbPAC1A. Kind of assay: cAMP production in Cos7 cells expressing sbPAC1A (RIA). In kind it is cell-based, sea bream (Sparus auratus). The following applies: for LOGEC50 for cAMP production: 10^-6 to 10^-11M peptide, cAMP by radioimmunoassay (TRK432), mean ± SEM of three independent experiments in duplicate, log value with negative sign. As to the method: (§3) Specific primers for each sbPAC1 gene were designed to amplify the mature receptor sequence (Table 2) and were cloned into pcDNA3 vector (Invitrogen, UK) containing a signal peptide of CD33 and a T7-epitope tag (CD33-T7-pcDNA3, [66]). In order to facilitate cloning, restriction digestion sites for BglII and EcoRI enzymes were incorporated in the forward and reverse primers respectively. Template amplification was carried out using the thermocyle; 95°C for 2 minutes; 35 cycles of (95°C for 1 minute, 68°C for 1 minute and 70°C 2 minutes); 72°C for 10 minutes with a proof-reading Pfu DNA polymerase (Promega, Spain) in a 25 μl reaction volume containing 1 × PCR buffer (Promega, Spain), 1,5 mM MgCl2 (Promega, Spain), 0,2 mM dNTPs (Amersham), […] of each primer and 1,5 U Pfu DNA polymerase (3 U/μl)) and DNase Free water (Sigma-Aldrich, Spain). The amplified PCR products were cloned into pGEMT-easy vector (Promega, Spain), sequenced and subcloned into CD33-T7-pcDNA3 vector in frame with the T7-epitope tag. The recombinant constructs produced (CD33-T7-pcDNA3+sbPAC1A and CD33-T7-pcDNA3+sbPAC1B) were sequenced and used to transfect mammalian Cos7 and Hek293 cells lines. The CD86 (NM_175862) membrane protein of the immunoglobulin superfamily cloned in CD33-T7-pcDNA3 expression vector was used as positive control for cell transfection (de Vet et al., 2001).
(§4) Mammalian Cos7 and Hek293 cell lines were transfected using the Effectene transfection kit (Qiagen, Germany) and the success of transfection was assessed by western blot and immunofluorescence assays using antisera raised against the T7-epitope tag protein [66]. One day prior to transfection, approximately 60,000 to 70,000 Cos7 and Hek293 cells were seeded and transfections carried out using approximately 0.4 μg of recombinant construct (pcDNA3+sbPAC1A or B) and cells were grown for 2 days at 37°C. The viability of transfected cells was determined by dye exclusion using Trypan blue (0,4% solution, Sigma) and the success of transfection calculated by fluorescent confocal microscopy using DAPI (4',6-Diamidino-2-phenylindole) and FITC (Fluorescein) staining for Cos7 cells and the FACS (Fluorescence Activated Cell Sorting) method for Hek293 cells. The percentage of cell transfection was estimated to be approximately 30% in both cell lines.
Ligand binding studies were performed two days after transfections, in three independent experiments. Transfected cells were incubated in duplicate with different concentrations (10^-6 to 10^-11M) of the human VIP, PACAP38 and secretin (SCT) peptides and ovine PACAP27 peptide for 30 minutes (Sigma-Aldrich, Spain). Homologous sea bream peptides are unavailable but their predicted amino acid sequences are 82%, 100%and 92% identical to human VIP, PACAP27 and PACAP38 respectively and important amino acids at N-terminus potential involved in receptor binding are totally conserved (unpublished data). Prior to ligand-binding assays, Cos7 and Hek293 cells were washed 3 times with DMEM medium without fetal calf serum and incubated in a CO2 incubator with 1 mM of IBMX (3-Isobutyl-1-Methylxantine) for 30 minutes. Ligand-binding assays were performed by incubating the cells in fresh medium containing the peptides in the presence of 1 mM IBMX for 30 minutes at 37°C in the CO2 incubator. After incubation, cells were lysed and stored at -80°C until required. Mammalian Cos7 and Hek293 cells transfected with wild type pcDNA3 were used as negative controls which were incubated with the highest tested peptide concentration ([…]). Prior to assays the responsiveness of transfected Cos7 and Hek293 cells was tested by stimulating cAMP production using Forskolin ([…]; Sigma-Aldrich).
The quantification of cAMP produced was determined by radioimmunoassay using the TRK432 kit (GE Healthcare, UK) following the manufacturer's instructions. Cos7 and Hek293 cells were lysed by sonication, centrifuged and the supernatant heat denatured for 10 minutes at 100°C. […]

Another assay has as its system sbPAC1B. Kind of assay: cAMP production in Cos7 cells expressing sbPAC1B (RIA). In kind it is cell-based, sea bream (Sparus auratus). The settings on record: for LOGEC50 for maximal cAMP production: 10^-6 to 10^-11M peptide, cAMP by radioimmunoassay (TRK432), mean ± SEM of three independent experiments in duplicate, log value with negative sign. How it is done:
as §3, §4
Ligand binding studies were performed two days after transfections, in three independent experiments. Transfected cells were incubated in duplicate with different concentrations (10^-6 to 10^-11M) of the human VIP, PACAP38 and secretin (SCT) peptides and ovine PACAP27 peptide for 30 minutes (Sigma-Aldrich, Spain). […]
The quantification of cAMP produced was determined by radioimmunoassay using the TRK432 kit (GE Healthcare, UK) following the manufacturer's instructions. […]

The test system of another assay is pituitary cells. The settings on record: compared to GHRH and GnRH for PACAP38; ref [46],[51],[52]; cited from earlier work. The text has this: (§5) An intriguing aspect about the sbPAC1 genes is their divergent tissue distribution and this may be the basis of their specific physiological functions and persistence in the genome. Understanding the biological function of receptors is complex as it is not only the availability and concentration of receptors but also of ligands and accessory factors at a given site which will determine receptor preference/activity and ultimately biological function.

For another assay, the system named is PAC1. The settings on record: human PAC1; ref [18],[19]; cited from earlier work. The text has this: In vertebrates, activation of PAC1/VPAC receptors occurs via three intracellular transduction mechanisms. These involve either cyclic AMP (cAMP) production, IP turnover via PLC or/and calcium mobilization as a consequence of the activation of a G-protein complex. In mammals, five PAC1 isoforms, which result from the insertion of one or two, 28 (hip or hop1 variant) or ...

Assay [3] concerns endogenous receptors in Hek293. Kind of assay: Negative control: Hek293 cells transfected with pcDNA3 without insert. In kind it is cell-based. The settings on record: maximum concentration of test peptide (10^-6 M).
Excerpt: The sbPAC1A and sbPAC1B were successfully expressed in Cos7 and Hek293 cell lines as confirmed by immunofluorescence and Western blot analysis. Cos7 cell extracts subject to Western blot contained a specific immunoreactive fusion protein of approximately 52 kDa in transfected cells, which corresponds to the estimated molecular weight in silico of the fusion proteins, (T7PAC1A is 52.75 kDa and T7PAC1B is 52.32 kDa). […] For this reason only the results obtained with transfected Cos7 cells are presented.
Ligand binding studies were performed two days after transfections, in three independent experiments. […]
as §2

The subject of assay [4] is gastric and pancreatic secretion. The following applies: cod; ref [55],[56]; cited from earlier work.
Excerpt: as §5

A further assay deals with intestine. The settings on record: tilapia; ref [57]; cited from earlier work.
Excerpt: as §5

Setting [5] is: transfected Cos7 cells, 30 minutes, 37°C, 1 mM IBMX.

On to `C=C[C@@]1(C)CC(=O)[C@]2(O)[C@@]3(C)[C@@H](O)CCC(C)(C)[C@@H]3[C@H](O)[C@H](OC(C)=O)[C@@]2(C)O1` [Forskolin], for which the “cAMP production with Forskolin” value in assay [1] and in assay [2] was “maximal cAMP production” throughout.
As for “Pituitary Adenylate Cyclase-Activating Polypeptide [PACAP27]”, the “stimulation of sbPAC1A compared to sbPAC1B (LOGEC50 values for maximal cAMP production)” value in the assay on sbPAC1A (sbPAC1A vs sbPAC1B, P > 0.05) is “equally stimulated”.
As to “Pituitary Adenylate Cyclase-Activating Polypeptide [PACAP38]”, in the assay on sbPAC1B (setting [5]), the “LOGEC50 for maximal cAMP production” value is given as -8.92 ± 0.24 M. For the same compound, the “LOGEC50 for cAMP production” value with sbPAC1A (setting [5]) is given as -8.54 ± 0.18 M. Also, the “effect on fish GH secretion by pituitary cells” value in the assay on pituitary cells is “more potent stimulatory effect on fish GH secretion by pituitary cells when compared to GHRH and GnRH”.
For the compound “Pituitary Adenylate Cyclase-Activating Polypeptide [PACAP]”, the “binding preference of PAC1” value in the assay on PAC1 is “preferentially binds PACAP”. Besides, the “responsiveness of Hek293 cells transfected with pcDNA3 without insert” value in assay [3] is “responsive”.
As to Vasoactive Intestinal Peptide [VIP], the “LOGEC50 for maximal cAMP production” value in the assay on sbPAC1B (setting [5]) is -6.57 ± 0.14 M. For the same compound, the “stimulation of cAMP compared with PACAP27 and PACAP38” value with sbPAC1B (two way Anova, Holm-Sidak, transfected Cos7 cells, P < 0.001) is “significantly lower than PACAP27 and PACAP38 (P < 0.001)”. The “potency for sbPAC1A compared to sbPAC1B” value with sbPAC1A (LOGEC50 comparison of sbPAC1A vs sbPAC1B, P < 0.05) is “significantly more potent for sbPAC1A”. Also, the “LOGEC50 for cAMP production” value in the assay with sbPAC1A (setting [5]) is listed as -7.23 ± 0.20 M. The “stimulation of cAMP production compared with PACAP peptides” value in the assay with sbPAC1A (two way Anova, Holm-Sidak, transfected Cos7 cells, P < 0.05) is “significantly lower (P < 0.05) than for PACAP peptides”. Moreover, in assay [3], the “responsiveness of Hek293 cells transfected with pcDNA3 without insert” value is given as “responsive”. For the same compound, the “effect on fish GH secretion by pituitary cells” value with pituitary cells was “little or no effect on GH release”. For the same compound, the “effect on gastric and pancreatic secretion” value in assay [4] is “stimulates gastric and pancreatic secretion”. Besides, in the assay with intestine, the “effect on ion and water absorption by the intestine” value is “involved in ion and water absorption by the intestine”.
secretin [SCT]: the “increase above the basal concentration of cAMP production” value with sbPAC1B (human SCT, Cos7 cells transformed with sbPAC1B, 30 minutes, 37°C, 1 mM IBMX, data not shown) is recorded as “negligible increase”; with sbPAC1A (human SCT, Cos7 cells transformed with sbPAC1A, 30 minutes, 37°C, 1 mM IBMX, data not shown), “negligible increase”.
